Test results: PubChem BioAssay AID248 (DTP/NCI, 2004)
Toxic doses and inconclusive results are not listed. Cut-off read from the data, not from the text of the source: active = T/C of 150% or more; inactive = T/C below 125%.

Test system: L1210 leukemia ip in BDF1 mice, survival T/C
Assay: NCI In Vivo Anticancer Drug Screen. Data for tumor model L1210 Leukemia (intraperitoneal) in B6D2F1 (BDF1) mice
Conditions: endpoint: mean survival time, higher = longer survival
How it was run: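 In this screen, tumor-bearing mice given compound are compared to those given vehicle, and their survival values are reported as a treated-to-control quotient.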

[1] = dose: 100.0 mg/kg/injection, schedule: Q01DX001 (ip), vehicle: saline
[2] = dose: 200.0 mg/kg/injection, schedule: Q01DX001 (ip), vehicle: saline
[3] = dose: 400.0 mg/kg/injection, schedule: Q01DX001 (ip), vehicle: saline
[4] = dose: 100.0 mg/kg/injection, schedule: Q04DX003 (ip), vehicle: saline
[5] = dose: 200.0 mg/kg/injection, schedule: Q04DX003 (ip), vehicle: saline
[6] = dose: 400.0 mg/kg/injection, schedule: Q04DX003 (ip), vehicle: saline
[7] = dose: 100.0 mg/kg/injection, schedule: Q01DX009 (ip), vehicle: Klucel (hydroxypropylcellulose) (HPC)
[8] = dose: 200.0 mg/kg/injection, schedule: Q01DX009 (ip), vehicle: Klucel (hydroxypropylcellulose) (HPC)
[9] = dose: 400.0 mg/kg/injection, schedule: Q01DX009 (ip), vehicle: Klucel (hydroxypropylcellulose) (HPC)
[10] = dose: 100.0 mg/kg/injection, schedule: Q01DX009 (ip), vehicle: saline with Tween-80
[11] = dose: 100.0 mg/kg/injection, schedule: Q04DX003 (ip), vehicle: saline with Tween-80
[12] = dose: 200.0 mg/kg/injection, schedule: Q01DX009 (ip), vehicle: saline with Tween-80
[13] = dose: 200.0 mg/kg/injection, schedule: Q04DX003 (ip), vehicle: saline with Tween-80
[14] = dose: 400.0 mg/kg/injection, schedule: Q01DX009 (ip), vehicle: saline with Tween-80
[15] = dose: 400.0 mg/kg/injection, schedule: Q04DX003 (ip), vehicle: saline with Tween-80
[16] = dose: 100.0 mg/kg/injection, schedule: Q04DX002 (ip), vehicle: Klucel (hydroxypropylcellulose) (HPC)
[17] = dose: 100.0 mg/kg/injection, schedule: Q04DX003 (ip), vehicle: Klucel (hydroxypropylcellulose) (HPC)
[18] = dose: 200.0 mg/kg/injection, schedule: Q04DX003 (ip), vehicle: Klucel (hydroxypropylcellulose) (HPC)
[19] = dose: 400.0 mg/kg/injection, schedule: Q04DX003 (ip), vehicle: Klucel (hydroxypropylcellulose) (HPC)

Measured: T/C

Brc1ccc(-c2nc3ccccc3c(Br)c2Br)cc1
inactive: [1] 90 % of control | [2] 94 % of control | [3] 90 % of control

CC(C)(CC(=O)O)c1ccccc1
inactive: [1] 96 % of control | dose: 100.0 mg/kg/injection, schedule: Q01DX009 (ip), vehicle: saline 104 % of control | [4] 100 % of control | [2] 106 % of control | dose: 200.0 mg/kg/injection, schedule: Q01DX009 (ip), vehicle: saline 101 % of control | [5] 104 % of control | [3] 96 % of control | dose: 400.0 mg/kg/injection, schedule: Q01DX009 (ip), vehicle: saline 96 % of control | [6] 91 % of control

CCN(CC)C(=O)c1ccc(COc2cc(Cl)cc(Cl)c2)cc1
inactive: [7] 94 % of control | [8] 97 % of control | [9] 96 % of control

NC(=O)CC(NC(=O)OCc1ccccc1)C(=O)OCc1ccccc1 (centres undefined)
inactive: [10] 106 % of control | [11] 96 % of control | [12] 95 % of control | [13] 96 % of control | [14] 93 % of control | [15] 91 % of control

O=S1C=Cc2ccccc21 (centres undefined)
inactive: [16] 101 % of control | dose: 200.0 mg/kg/injection, schedule: Q04DX002 (ip), vehicle: Klucel (hydroxypropylcellulose) (HPC) 116 % of control | dose: 400.0 mg/kg/injection, schedule: Q04DX002 (ip), vehicle: Klucel (hydroxypropylcellulose) (HPC) 105 % of control

O=C(COc1ccc(Cl)c(Cl)c1)N(Cc1ccccc1)Cc1ccc[n+](Cc2cccc(Cl)c2S(=O)(=O)F)c1
inactive: dose: 25.0 mg/kg/injection, schedule: Q04DX003 (ip), vehicle: saline with Tween-80 106 % of control | dose: 50.0 mg/kg/injection, schedule: Q04DX003 (ip), vehicle: saline with Tween-80 96 % of control

c1ccc2c(SCCC3CCCCC3)nnnc2c1
inactive: dose: 100.0 mg/kg/injection, schedule: Q04DX003 (ip), vehicle: acetone 89 % of control | dose: 200.0 mg/kg/injection, schedule: Q04DX003 (ip), vehicle: acetone 98 % of control | dose: 400.0 mg/kg/injection, schedule: Q04DX003 (ip), vehicle: acetone 93 % of control

O=C(Nc1ccc(Cl)c(Cl)c1)N(CCO)Cc1ccccc1
inactive: [7] 90 % of control | [8] 92 % of control | [9] 97 % of control

O=C(OCc1ccccc1CN1CCCCC1)c1ccccc1
inactive: dose: 25.0 mg/kg/injection, schedule: Q04DX002 (ip), vehicle: Klucel (hydroxypropylcellulose) (HPC) 97 % of control | dose: 50.0 mg/kg/injection, schedule: Q04DX002 (ip), vehicle: Klucel (hydroxypropylcellulose) (HPC) 101 % of control | [16] 97 % of control

Cc1ccc(OCCOc2ccc([N+](=O)[O-])cc2)cc1
inactive: [17] 96 % of control | [18] 93 % of control | [19] 91 % of control

NC(=S)Nc1cccc(O)c1
inactive: dose: 100.0 mg/kg/injection, schedule: Q01DX009 (ip), vehicle: gum acacia 96 % of control | dose: 100.0 mg/kg/injection, schedule: Q04DX003 (ip), vehicle: gum acacia 92 % of control | dose: 200.0 mg/kg/injection, schedule: Q01DX009 (ip), vehicle: gum acacia 87 % of control | dose: 200.0 mg/kg/injection, schedule: Q04DX003 (ip), vehicle: gum acacia 92 % of control | dose: 400.0 mg/kg/injection, schedule: Q01DX009 (ip), vehicle: gum acacia 87 % of control | dose: 400.0 mg/kg/injection, schedule: Q04DX003 (ip), vehicle: gum acacia 92 % of control

CC(Cl)CN(CC(C)Cl)C(=O)OCC(NC(=O)OCc1ccccc1)C(=O)OCc1ccccc1 (centres undefined)
inactive: [7] 88 % of control | [17] 87 % of control | [18] 96 % of control | [9] 91 % of control | [19] 91 % of control

Cc1ccc(C(=O)CCCC(=O)O)c(O)c1
inactive: dose: 100.0 mg/kg/injection, schedule: Q01DX001 (ip), vehicle: Klucel (hydroxypropylcellulose) (HPC) 96 % of control | [7] 97 % of control | [17] 102 % of control | dose: 200.0 mg/kg/injection, schedule: Q01DX001 (ip), vehicle: Klucel (hydroxypropylcellulose) (HPC) 104 % of control | [8] 93 % of control | [18] 112 % of control | dose: 400.0 mg/kg/injection, schedule: Q01DX001 (ip), vehicle: Klucel (hydroxypropylcellulose) (HPC) 95 % of control | [9] 92 % of control | [19] 100 % of control

CC(C)CCS(=O)CCC(C)C
inactive: [10] 96 % of control | [11] 105 % of control | [12] 96 % of control | [13] 120 % of control | [14] 100 % of control | [15] 97 % of control

CC(=O)c1cccc(NC(=O)Nc2cccc(F)c2)c1
inactive: [7] 103 % of control | [8] 97 % of control | [9] 110 % of control

CC1CC2OC(=O)C(O)(CO)C2CC2(C)C(=O)C=CC12 (centres undefined)
inactive: dose: 25.0 mg/kg/injection, schedule: Q04DX002 (ip), vehicle: saline 102 % of control | dose: 50.0 mg/kg/injection, schedule: Q04DX002 (ip), vehicle: saline 124 % of control | dose: 100.0 mg/kg/injection, schedule: Q04DX002 (ip), vehicle: saline 120 % of control

S=C(SNC1CCCCC1)SNC1CCCCC1
inactive: [1] 103 % of control | [17] 114 % of control | [2] 94 % of control | [18] 105 % of control | [3] 105 % of control | [19] 107 % of control

C1CC2OC2CC1C1CO1 (centres undefined)
inactive: [4] 105 % of control | [5] 109 % of control | [6] 102 % of control

Cc1ccc(C)n1-c1ccc(S(=O)(=O)c2ccc(NC(=O)CCC(=O)O)cc2)cc1
inactive: [10] 93 % of control | [12] 88 % of control | [14] 96 % of control

O=C(NC(=S)Nc1cccc(Cl)c1)c1ccccc1
inactive: [7] 106 % of control | [17] 95 % of control | [8] 113 % of control | [18] 92 % of control | [19] 95 % of control

C/C(=N/NC(N)=S)c1ccc(F)cc1
inactive: dose: 9.38 mg/kg/injection, schedule: Q01DX009 (ip), vehicle: Klucel (hydroxypropylcellulose) (HPC) 95 % of control | dose: 18.75 mg/kg/injection, schedule: Q01DX009 (ip), vehicle: Klucel (hydroxypropylcellulose) (HPC) 92 % of control
